Reference: paper PMC4467461, “Small-molecule activation of SERCA2a SUMOylation for the treatment of heart failure” (Nature Communications, 2015)
“Also recorded” adds a separate entry of the source.

Assays:
SERCA2a SUMOylation = test: Endogenous SERCA2a SUMOylation, SUMO-1 conjugates and Ubc9 in cardiomyocytes (immunoprecipitation / western blot); type: cell-based, Sprague–Dawley rats
Protocol: Figure 1 N106 increases SERCA2a’s cellular activity and SUMOylation in adult cardiomyocytes. In-vitro characterization of activators of SERCA2a SUMOylation. Cell-based screening of small molecules identified one promising compound. Adult ventricular cardiomyocytes were isolated from Sprague–Dawley rats and treated with small molecules on dose-dependent manner for 24 h. DMSO-treated cardiomyocytes were used as a negative control. (a) Chemical structure of SERCA2a SUMOylation activator. N106, N-(4-methoxybenzo[d]thiazol-2-yl)-5-(4-methoxyphenyl)-1,3,4-oxadiazol-2-amine. (b-g) The effects of N106 compound in cardiomyocyte contractility and calcium transient. The dose-dependent effects of N106 compound presented on peak shortening, the time to maximal departure velocity, the time to maximal return velocity, calcium ratio, decay time constant (τ) and the time to 90% baseline (t90) fluorescence in cardiomyocytes were assessed using a video-based edge-detection system (IonOptix Inc.). n=25 cardiomyocytes from each three of hearts per condition. (h) The effects of N106 compound on the ATPase activity of SERCA2a. The ATPase activity were measured at 25 °C in 50 mM MOPS, 100 mM KCl, 5 mM MgCl2, 1 mM […] at pCa 5.0 by using a coupled enzyme system consisting of pyruvate kinase and lactate dehydrogenase, and monitoring the oxidation of the reduced form of NADH at […]. The enzyme activity was determined by using same set of cardiomyocytes. (i) The effect of N106 compound for the formation of SUMOylated SERCA2a was determined using the same set of cardiomyocytes. Endogenous SERCA2a SUMOylation was detected by immunoprecipitation with anti-SERCA2a and then western blotting with anti-SUMO-1 antibodies. The experiments shown are representative of three independent experiments with similar results. (j) The effect of N106 compound on global SUMOylation was measured by western blot analysis with an anti-SUMO-1 antibody in the same set of cardiomyocytes. The experiments shown are representative of three independent western blottings. Data are represented as mean±s.e.m. (n=3 mice hearts per each condition). Data are represented as mean±s.e.m. *P≤0.05; **P<0.001 (Student’s t-test) from DMSO control.
Protein extracts (20∼50 μg) were obtained from isolated cardiomyocytes, which was lysed in RIPA buffer (R&D Systems Inc., MN, USA) contained protease inhibitors (Complete mini, Roche Diagnostics, IN, USA) and 20 mM NEM (Sigma-Aldrich). For SERCA2a SUMOylation assays, cardiac protein extracts were immunoprecipitated with a SUMO-1 agarose resin (Santa Cruz Biotechnology Inc., CA, USA) for overnight at 4 °C. The resins were washed with cold lysis buffer three times. The immunocomplexes were then resolved by SDS–PAGE and western blot analysis was performed using a SERCA2a-specific antibody. […]
treated with small molecules were determined: peak shortening (b) and calcium transient (c). […]

sham-operated mice = test: Haemodynamic measurements in sham-operated mice; type: in vivo; details: sham mice, 0.1, 1, 10 mg kg^−1
Protocol: One day after echocardiography, we performed in-vivo haemodynamics. The mice were anaesthetized with an intraperitoneal injection mixture of urethane (1 mg g^−1), etomidate (10 μg g^−1) and morphine (1 μg g^−1), and were then intubated via a tracheotomy and mechanically ventilated at 7 μl g^−1 tidal volume and 120 respirations per minute. A small incision was made in the apex and a French Millar cathether connected a high-fidelity pressure transducer (Scisense, London, ON, Canada) inserted into the LV. Haemodynamic recordings were performed after 5∼10 min of stable HR. The rate of pressure rise (+dP/dt) and maximal pressure, the time constant of isovolumic relaxation and HR were recorded and analysed. To determine the relative effects of the admittance and conductance techniques to contractility change induced by N106 compound infusion, whole haemodynamic function was recorded at both baseline and after administration of N106 compound through the external jugular vein. N106 compound was solubilized in 10% DMSO (Sigma-Aldrich), 10% Tween-80 (Sigma-Aldrich) and saline for in-vivo experiments. N106 or vehicle solutions were continuously infused through the external jugular vein at a rate of 50 μl min^−1 for 2 min in each dose. Whole haemodynamic functions of increasing dose of N106 of each mouse were recorded for ∼4 h. […]

COc1ccc(-c2nnc(Nc3nc4c(OC)cccc4s3)o2)cc1 [Compound N106, N-(4-methoxybenzo[d]thiazol-2-yl)-5-(4-methoxyphenyl)-1,3,4-oxadiazol-2-amine]
endogenous SERCA2a SUMOylation (SERCA2a SUMOylation; 10 μM, 24 h): enhancement of endogenous SERCA2a SUMOylation; also recorded: significantly induced | protein levels of E2 conjugation enzyme, Ubc9 (SERCA2a SUMOylation; 10 μM, 24 h): without upregulation of Ubc9 | SERCA2a SUMOylation, time course (SERCA2a SUMOylation; 10 μM, 10∼30 min, sustained at 24 h): increased | whole SUMO-1 conjugates (SERCA2a SUMOylation; in response to the concentration of N106, 24 h): increased | levels of SERCA2a SUMOylation (SERCA2a SUMOylation; increasing N106 concentration, 24 h): increased | effect on ESPVR slope, dP/dt max, maximal pressure and heart rate (sham-operated mice): no significant effect; also recorded: not statistically significant
